According to patent publication US7355074B2, “Compounds having aromatic rings and side-chain amide-functionality and a method for transporting monovalent anions across biological membranes using the same” (The University of Maryland, priority 2003, dated 2008):
Marks after values point to notes of the source that are not given here.

Assays:
[1] = pH-assisted fluorimetric transport assay with calixarene amides (HPTS-loaded liposomes); type: biochemical; conditions: for ion transport in sulfate buffers: sodium sulfate-filled LUVs in isotonic solution, up to 50 μM
Method: The ability of 1 and 2 to mediate ion flux across a lipid bilayer was studied fluorimetrically. A solution of 1 or 2 was added to a suspension of EYPC large unilamellar vesicles (LUVs) containing the pH-sensitive dye pyranine. An NaOH solution was added to the extravesicular buffer to create a gradient of approximately one pH unit. The resulting electrostatic potential, caused by proton efflux from the liposomes, can be compensated by cation influx or anion efflux, as mediated by the exogenous ligand. Ion transport across the membrane was signaled by the increase in relative fluorescence that accompanied the rise in intravesicular pH.
Liposome Preparation. EYPC HPTS-Containing LUVs, egg yolk 1-α-phosphatidylcholine (EYPC, 60 mg, […]) was dissolved in a CHCl3MeOH mixture, the solution was evaporated under reduced pressure, and the resulting thin film was dried under high vacuum for 2 h. The lipid film was hydrated in 1.2 mL of phosphate buffer (10 mM sodium phosphage, pH=6.4, 75-100 mM MX, M=Na^+, K^+, Cs^+, X=[…], SO4^2−) containing 10 μM HPTS (pyranine 8-hydroxypyrene-1,3,6-trisulfonic acid trisodium salt) for 2 h. The LUV suspension (1 mL) was submitted to high-pressure extrusion at room temperature (2) extrusions through a 0.1 μM polycarbonate membrane afforded LUVs with a diameter of 100 nm). The LUV suspension was separated from extravesicular dye by size exclusion chromatography (SEC) stationary phase: Sephadex G-10, mobile phase:phosphate buffer) and diluted with the same phosphate buffer to give a stock solution with a lipid concentration of 11 mM (assuming 100% of lipid was incorporated into liposomes).
Fluorimetric Transport Assays. pH-Assisted Transport Assays. Typically, 100 μL of HPTS-loaded vesicles (stock solution) was suspended in 1.85 mL of the corresponding buffer and placed into a fluorimetric cell. HPTS emission at 510 nm was monitored with excitation wavelengths at 403 and 460 nm simultaneously. During the experiment, 20 μL of a 0-10 mM THF solution of the compound of interest was added through an injection port, followed by injection of 21 μL of 0.5 M aqueous NaOH. Addition of the NaOH caused a pH increase of approximately 1 pH unit in the extravesicular buffer. Maximal changes in dye emission were obtained at the end of each experiment by lysis of the liposomes with detergent (40 μL of 5% aqueous Triton x100). The final transport trace was obtained as a ratio of the emission intensities monitored at 460 and 403 nm and normalized to 100% of transport.

[2] = 1H NMR binding experiment in CDCl3, HCl extraction
Method: FIG. 7 illustrates a series of […] spectra (400 mHz, CDCl3, 22° C.) of calixarene tetrabutylamide in the presence of different species: (A) the compound alone (5 mm); (B) the compound with 1 equiv. of Bu4 NCl; (C) the compound after washing CDCl3 solution of the compound with an aqueous solution of 0.5 m HCl; (D) after washing CDCl3 solution of the compound with an aqueous solution of 0.5 M H2SO4.
To obtain evidence for Cl^− binding by 2, ^1H NMR experiments were run in CDCl3 using n-Bu4-NCl and HCl as Cl^− sources. Anion receptors usually show chemical shift perturbation upon anion complexation, particularly for amide NH protons that hydrogen bond to the anion. […] Calix[4]arene tetrabutylamide 2 does, however, bind HCl. Thus, shaking a CDCl3 solution of 2 with aqueous HCl led to disappearance of the amide NH proton and a significant upfield shift of the […] protons (FIG. 4c).

35Cl NMR transport assay = type: biochemical; conditions: vesicles with NaCl and Co2+ inside, Co2+-free Na2SO4 buffer outside; 2 mol %
Method: FIG. 2A illustrates ^35Cl NMR spectra of a suspension of giant vesicles (29 mM EYPC, 100 mM NaCl, 10 mM CoCl2, 10 mM NanH3-nPO4, n=1, 2 pH 5.3) suspended in 75 mM […] buffer (NanH3-nPO4, n=1, 2, pH spectra correspond to a) giant vesicles in the absence of 3, b) giant vesicles after application of 2 mol % 3 in DMSO, c) vesicles after lysis with Triton X-100.
Liposome Preparation for ^35Cl NMR Assays. Egg yolk L-α-phosphatidylcholine (1.0 mg/mL EYPC ethanol solution, 250 μL, […]) was dissolved in a CHCl3/MeOH mixture, the solution was evaporated under reduced pressure and the resulting thin film was dried under high vacuum for 2.5 h. The lipid film was hydrated in 1.0 mL of phosphate buffer (9:1 H2O:D2O, 10 mM sodium phosphate, pH=5.4, 100 mM NaCl) containing 10 mM CoCl2 (^35Cl shift reagent) for 40 min. During hydration, the suspension was submitted to 5 freeze-thaw cycles (liquid nitrogen, water at rt). The giant liposome suspension (1 mL) was submitted to high-pressure extrusion at rt (41 passes through a 5.0 μm polycarbonate membrane). […]
^35Cl NMR Measurements. All ^35Cl NMR spectra were recorded on a Bruker DRX500 instrument operating at 49.0023 MHz for the ^35Cl resonance and chemical shift values are reported in ppm relative to 25 mM NaCl in D2O at 0 ppm (external standard). […]

## CCCCNC(=O)COc1c2cccc1Cc1cccc(c1OCC(=O)NCCCC)Cc1cccc(c1OCC(=O)NCCCC)Cc1cccc(c1OCC(=O)NCCCC)C2 [calix[4]arene tetrabutylamide 2, Calix[4]arene tetrabutylamide]
[1]
  transport activity when buffer changed from NaCl to Na2SO4: essentially complete loss of transport activity
  ion transport in sulfate buffers: not mediated
[1]; 5 μM, 100 mM Na2SO4 inside pH 6.4 and outside pH 7.4, not corrected for unmediated exchange
  Initial Pseudo-first Order Transport Rate Constants, Na2SO4: 1.1^b,d ×10^−3 s^−1
[1]; 5 μM, 100 mM NaCl inside pH 6.4, 100 mM CsCl outside pH 7.4, not corrected for unmediated exchange
  Initial Pseudo-first Order Transport Rate Constants, CsCl: 7.7^b,c ×10^−3 s^−1
[1]; 5 μM, 100 mM NaCl inside pH 6.4, 100 mM KCl outside pH 7.4, not corrected for unmediated exchange
  Initial Pseudo-first Order Transport Rate Constants, KCl: 6.4^b,c ×10^−3 s^−1
[1]; 5 μM, 100 mM NaCl inside pH 6.4, 100 mM NaCl outside pH 7.4, not corrected for unmediated exchange
  Initial Pseudo-first Order Transport Rate Constants, NaCl: 6.8^b,c ×10^−3 s^−1
[1]; buffers containing Na, K or Cs
  cation selectivity of ion transport: nonselective toward the cation
[1]; chloride versus sulfate buffers
  anion transport selectivity: pronounced Cl^− over HSO4^− transport selectivity
[1]; extravesicular Na, K or Cs chloride, ligand:lipid ratio of 1:100
  transport activity: rapid exchange of intra-and extravesicular electrolytes
[1]; listed as calix[4]arene tetrabutylamide
  ion transport in sulfate buffers: No significant transport
[2]
  HCl binding: binds HCl

## CCCCNC(=O)COc1ccccc1Cc1cccc(Cc2ccccc2OCC(=O)NCCCC)c1OCC(=O)NCCCC [trimer 3, Tris-(N-butyl-2-phenoxyacetamide)]
35Cl NMR transport assay
  outward Cl− transport (35Cl NMR signal): enhancement of the extravesicular Cl^− peak
